“And” between values parts separate entries of the source, which are not always exact repeats. Identical values can stand only once. Inconclusive results and toxic doses are left out.
Tested on: P388 leukemia ip, CD2F1 mice, survival T/C
Test: NCI In Vivo Anticancer Drug Screen. Data for tumor model P388 Leukemia (intraperitoneal) in CD2F1 (CDF1) mice
Conditions: endpoint: median survival time, higher = longer survival
Summary of the method: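 Mice carrying the transplanted tumor received test compound or vehicle. Survival was recorded in each group, and the value is the treated-group measurement divided by that of the vehicle-treated control group.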

[1] = dose: 50.0 mg/kg/injection, schedule: Q01DX005 (ip), vehicle: Klucel (hydroxypropylcellulose) (HPC)
[2] = dose: 100.0 mg/kg/injection, schedule: Q01DX005 (ip), vehicle: Klucel (hydroxypropylcellulose) (HPC)
[3] = dose: 200.0 mg/kg/injection, schedule: Q01DX005 (ip), vehicle: Klucel (hydroxypropylcellulose) (HPC)
[4] = dose: 100.0 mg/kg/injection, schedule: Q04DX003 (ip), vehicle: saline with Tween-80
[5] = dose: 200.0 mg/kg/injection, schedule: Q04DX003 (ip), vehicle: saline with Tween-80
[6] = dose: 50.0 mg/kg/injection, schedule: Q01DX009 (ip), vehicle: saline with Tween-80
[7] = dose: 100.0 mg/kg/injection, schedule: Q01DX009 (ip), vehicle: saline with Tween-80
[8] = dose: 200.0 mg/kg/injection, schedule: Q01DX009 (ip), vehicle: saline with Tween-80
[9] = dose: 100.0 mg/kg/injection, schedule: Q01DX001 (ip), vehicle: Klucel (hydroxypropylcellulose) (HPC)
[10] = dose: 60.0 mg/kg/injection, schedule: Q01DX005 (ip), vehicle: saline
[11] = dose: 120.0 mg/kg/injection, schedule: Q01DX005 (ip), vehicle: saline
[12] = dose: 100.0 mg/kg/injection, schedule: Q01DX009 (ip), vehicle: saline
[13] = dose: 200.0 mg/kg/injection, schedule: Q01DX009 (ip), vehicle: saline
[14] = dose: 200.0 mg/kg/injection, schedule: Q01DX001 (ip), vehicle: Klucel (hydroxypropylcellulose) (HPC)
[15] = dose: 400.0 mg/kg/injection, schedule: Q01DX001 (ip), vehicle: Klucel (hydroxypropylcellulose) (HPC)
[16] = dose: 50.0 mg/kg/injection, schedule: Q01DX009 (ip), vehicle: Klucel (hydroxypropylcellulose) (HPC)
[17] = dose: 100.0 mg/kg/injection, schedule: Q01DX009 (ip), vehicle: Klucel (hydroxypropylcellulose) (HPC)
[18] = dose: 200.0 mg/kg/injection, schedule: Q01DX009 (ip), vehicle: Klucel (hydroxypropylcellulose) (HPC)
[19] = dose: 50.0 mg/kg/injection, schedule: Q01DX009 (ip), vehicle: saline
[20] = dose: 60.0 mg/kg/injection, schedule: Q01DX005 (ip), vehicle: Klucel (hydroxypropylcellulose) (HPC)
[21] = dose: 120.0 mg/kg/injection, schedule: Q01DX005 (ip), vehicle: Klucel (hydroxypropylcellulose) (HPC)
[22] = dose: 240.0 mg/kg/injection, schedule: Q01DX005 (ip), vehicle: Klucel (hydroxypropylcellulose) (HPC)
[23] = dose: 200.0 mg/kg/injection, schedule: Q01DX005 (ip), vehicle: saline with Tween-80
[24] = dose: 50.0 mg/kg/injection, schedule: Q01DX005 (ip), vehicle: saline with Tween-80

In the case of `COC(=O)c1ccccc1N1C(=O)c2ccccc2NP1(=O)Oc1ccccc1` (stereo not drawn), the T/C (dose: 25.0 mg/kg/injection, schedule: Q01DX005 (ip), vehicle: Klucel (hydroxypropylcellulose) (HPC)) is reported as 101 % of control, the T/C [1] is reported as 104 % of control and the T/C [2] is reported as 106 % of control. The T/C [3] was 91 % of control.
`CC(=O)Nn1cnc2ccccc2c1=O` was tested, and the T/C (dose: 25.0 mg/kg/injection, schedule: Q04DX003 (ip), vehicle: saline with Tween-80) was 97 % of control, the T/C (dose: 50.0 mg/kg/injection, schedule: Q04DX003 (ip), vehicle: saline with Tween-80) was 90 % of control and the T/C [4] was 93 % of control. For the same compound, the T/C [5] was 101 % of control.
`CN1C(=O)C(O)(CC(=O)c2ccccc2)c2ccccc21` (stereo not drawn) was tested, and the T/C [6] was 93 % of control, the T/C [7] was 93 % of control and the T/C [8] was 90 % of control.
In the case of `O/C(=C(\c1ccccc1)n1ncc2c1OCCC2)c1ccccc1`, the T/C (dose: 50.0 mg/kg/injection, schedule: Q01DX001 (ip), vehicle: Klucel (hydroxypropylcellulose) (HPC)) is reported as 94 % of control and the T/C [9] is reported as 95 % of control.
With `NC(=O)c1ncnc2nc[nH]c12` the T/C (dose: 1.56 mg/kg/injection, schedule: Q01DX005 (ip), vehicle: saline with Tween-80) was 100 % of control and 102 % of control and 96 % of control, the T/C (dose: 3.13 mg/kg/injection, schedule: Q01DX005 (ip), vehicle: saline with Tween-80) was 100 % of control and 105 % of control and the T/C (dose: 12.5 mg/kg/injection, schedule: Q01DX005 (ip), vehicle: saline with Tween-80) was 111 % of control and 114 % of control.
`CCN(CC)CCNc1ccccc1` was tested, and the T/C [10] was 99 % of control and the T/C [11] was 99 % of control.
For `CC(C)(C)N=C(CCC(C#N)(C#N)CCC(=NC(C)(C)C)Nc1ccc([N+](=O)[O-])cc1)Nc1ccc([N+](=O)[O-])cc1`, the T/C [6] was 98 % of control, the T/C [7] was 95 % of control and the T/C [8] was 88 % of control.
For `Oc1ccc(C2c3ccccc3Oc3ccccc32)c2cccnc12`, the T/C [1] was 89 % of control, the T/C [2] was 89 % of control and the T/C [3] was 86 % of control.
For `CSc1nc(NC2OC(COC(C)=O)C(OC(C)=O)C(OC(C)=O)C2OC(C)=O)c(N=C(C)C(C)=O)c(=O)n1C` (stereo not drawn), the T/C (dose: 60.0 mg/kg/injection, schedule: Q01DX005 (ip), vehicle: saline with Tween-80) was 90 % of control and the T/C (dose: 120.0 mg/kg/injection, schedule: Q01DX005 (ip), vehicle: saline with Tween-80) was 91 % of control.
`CSCCC(N)C(=O)NCCS(=O)(=O)O` (stereo not drawn) was tested, and the T/C [10] was 105 % of control, the T/C [11] was 109 % of control and the T/C (dose: 240.0 mg/kg/injection, schedule: Q01DX005 (ip), vehicle: saline) was 102 % of control.
`CCOC(=O)CC1CCCN1` (stereo not drawn) was tested, and the T/C (dose: 25.0 mg/kg/injection, schedule: Q01DX005 (ip), vehicle: saline) was 110 % of control, the T/C (dose: 50.0 mg/kg/injection, schedule: Q01DX005 (ip), vehicle: saline) was 101 % of control and the T/C (dose: 100.0 mg/kg/injection, schedule: Q01DX005 (ip), vehicle: saline) was 97 % of control. For the same compound, the T/C (dose: 200.0 mg/kg/injection, schedule: Q01DX005 (ip), vehicle: saline) was 106 % of control.
With `C=C(CN1CCCC1)C(=O)c1ccc(OC)cc1` the T/C (dose: 0.93 mg/kg/injection, schedule: Q01DX005 (ip), vehicle: saline) was 97 % of control, the T/C (dose: 1.87 mg/kg/injection, schedule: Q01DX005 (ip), vehicle: saline) was 117 % of control and the T/C (dose: 3.75 mg/kg/injection, schedule: Q01DX005 (ip), vehicle: saline) was 108 % of control.
For `CC1CC(=O)OC2CC(C)(C)CC(=O)C12` (stereo not drawn), the T/C [12] was 100 % of control, the T/C [13] was 100 % of control and the T/C (dose: 400.0 mg/kg/injection, schedule: Q01DX009 (ip), vehicle: saline) was 109 % of control.
In the case of `N=C(N)c1ccc(Nc2ccc(-c3cc4ccc(C(=N)N)cc4[nH]3)cc2)cc1`, the T/C (dose: 1.87 mg/kg/injection, schedule: Q01DX005 (ip), vehicle: Klucel (hydroxypropylcellulose) (HPC)) is reported as 174 % of control and the T/C (dose: 7.5 mg/kg/injection, schedule: Q01DX005 (ip), vehicle: Klucel (hydroxypropylcellulose) (HPC)) is reported as 166 % of control and 194 % of control.
In the case of `CNc1c(C(=O)Nc2ccccc2)c(=O)n(C)c(=O)n1C`, the T/C [9] is reported as 94 % of control, the T/C [14] is reported as 92 % of control and the T/C [15] is reported as 93 % of control.
For `CC(C)(C)OC(=O)NC(Cc1cnc[nH]1)C(=O)O` (stereo not drawn), the T/C [1] was 90 % of control, the T/C [2] was 99 % of control and the T/C [3] was 98 % of control.
For `O=C(N/N=C\c1ccc(O)cc1O)C(=O)N/N=C\c1ccc(O)cc1O`, the T/C [16] was 98 % of control, the T/C [17] was 105 % of control and the T/C [18] was 100 % of control.
With `O=C(O)C1CCCN1` (stereo not drawn) the T/C [19] was 98 % of control, the T/C [12] was 100 % of control and the T/C [13] was 100 % of control.
For `O=C(O)c1cnc2cc3c(cc2c1Nc1ccc2c(c1)OCO2)OCO3`, the T/C [20] was 93 % of control, the T/C [21] was 92 % of control and the T/C [22] was 96 % of control.
In the case of `Cc1ccc(OC(=O)c2ccc3ccccc3n2)cc1`, the T/C (dose: 100.0 mg/kg/injection, schedule: Q04DX002 (ip), vehicle: saline with Tween-80) is reported as 101 % of control, the T/C (dose: 200.0 mg/kg/injection, schedule: Q04DX002 (ip), vehicle: saline with Tween-80) is reported as 94 % of control and the T/C (dose: 400.0 mg/kg/injection, schedule: Q04DX002 (ip), vehicle: saline with Tween-80) is reported as 94 % of control.
For `Nc1ccc(S(=O)(=O)Nc2c(N)nc(SCC(=O)O)[nH]c2=O)cc1`, the T/C [20] was 92 % of control, the T/C [21] was 96 % of control and the T/C [22] was 92 % of control.
For `COc1cc(Br)c(CC(NC(=O)c2ccccc2)c2ccc(OC)c(OC)c2OC)cc1OC` (stereo not drawn), the T/C [23] was 91 % of control.
With `O=C(NNc1ccccc1)NN(C(=O)Nc1cccc(Cl)c1)c1ccccc1` the T/C [1] was 96 % of control, the T/C [2] was 104 % of control and the T/C [3] was 100 % of control.
For `CCCCCCCCCC(=O)Nc1ncc([N+](=O)[O-])s1`, the T/C [16] was 94 % of control, the T/C [17] was 91 % of control and the T/C [18] was 94 % of control.
`CCCCN(CCCC)CC(O)c1ccc(Br)c2ccccc12` (stereo not drawn) was tested, and the T/C [24] was 105 % of control, the T/C (dose: 100.0 mg/kg/injection, schedule: Q01DX005 (ip), vehicle: saline with Tween-80) was 102 % of control and the T/C [23] was 104 % of control.
In the case of `Oc1ccc(Cc2ccc(O)cc2)cc1`, the T/C [4] is reported as 102 % of control, the T/C [5] is reported as 101 % of control and the T/C (dose: 400.0 mg/kg/injection, schedule: Q04DX003 (ip), vehicle: saline with Tween-80) is reported as 115 % of control.
With `O=S1(=O)C(c2ccc(F)cc2)=C(O)c2cc3ccccc3nc21` the T/C [6] was 112 % of control and the T/C [7] was 97 % of control.
`CC(=O)C[n+]1ccccc1-c1ccccc1C` was tested, and the T/C [24] was 103 % of control.
`CC1COC2(CCC(=CC(=O)O)CC2)O1` (stereo not drawn) was tested, and the T/C [9] was 100 % of control, the T/C [14] was 102 % of control and the T/C [15] was 97 % of control.
With `CC1(C)OC(=O)C(CCc2ccccn2)(CCc2ccccn2)C(=O)O1` the T/C (dose: 12.5 mg/kg/injection, schedule: Q01DX009 (ip), vehicle: saline with Tween-80) was 113 % of control, the T/C (dose: 25.0 mg/kg/injection, schedule: Q01DX009 (ip), vehicle: saline with Tween-80) was 103 % of control and the T/C [6] was 110 % of control. For the same compound, the T/C [7] was 114 % of control and the T/C [8] was 104 % of control.
For `Nc1cccc(S(=O)(=O)Nc2ncc(Cl)cn2)c1.[Ag]`, the T/C [19] was 93 % of control and the T/C [12] was 108 % of control.
With `Cc1ccc(S(=O)(=O)OI(O)c2ccccc2)cc1` the T/C (dose: 50.0 mg/kg/injection, schedule: Q01DX009 (ip), vehicle: water) was 108 % of control and the T/C (dose: 100.0 mg/kg/injection, schedule: Q01DX009 (ip), vehicle: water) was 104 % of control.
With `Cc1ncc(CO)c(CO)c1OCC(O)CN1CCN(C(=O)c2ccccc2)CC1` (stereo not drawn) the T/C [10] was 101 % of control and the T/C [11] was 104 % of control.
For `COc1cc(N)c2ncccc2c1Br`, the T/C [1] was 100 % of control, the T/C [2] was 104 % of control and the T/C [3] was 97 % of control.
In the case of `CSC(=S)/C(=C(/[O-])c1ccccc1)[n+]1cccc(C)c1`, the T/C (dose: 2.5 mg/kg/injection, schedule: Q04DX002 (ip), vehicle: saline with Tween-80) is reported as 99 % of control, the T/C (dose: 5.0 mg/kg/injection, schedule: Q04DX002 (ip), vehicle: saline with Tween-80) is reported as 106 % of control and the T/C (dose: 10.0 mg/kg/injection, schedule: Q04DX002 (ip), vehicle: saline with Tween-80) is reported as 106 % of control.
